# US9580426B2, “Compounds that expand hematopoietic stem cells” (Novartis AG, priority 2008, dated 2017)
# Tested on: mPB CD34+ cells and CB CD34+ cells
# Test: Colony-Forming Units in Culture (CFU-C) Assay
# Assay type: cell-based, human
# Method: Colony-Forming Units in Culture (CFU-C) Assay: Mononuclear cells at 1000 per mL for cord blood 5 week and mPB 3 week culture and 100 cells per mL for C δ 3 week and mPB 1 week culture were added to MethoCult SF H4436, serum-free methylcellulose medium containing methylcellulose in Iscove's MDM, bovine serum albumin, 2-mercaptoethanol, L-glutamine, human transferring (iron saturated), recombinant human insulin, and recombinant human cytokines: stem cell factor, GM-CSF, IL-3, IL-6, G-CSF, and erythropoietin (StemCell Technologies). The MethoCult is supplemented with the following human recombinant cytokines: thrombopoietin, and Flt-3 ligand (R&D Systems), each at a final concentration of 50 ng/mL. After stirring, the mixture is divided into three 35-mm dishes. The dishes are incubated for 14 days at 37° C. in a humidified atmosphere of 5% CO2 in air. At the end of the incubation period, myeloid and erythroid colonies are counted under an inverted microscope at 40× magnification. CFU-C content of the expansion culture is calculated as follows: number of scored colonies per three dishes×total mononuclear cell number/input cell number. Up to one week, total mononuclear cells are determined by multiplying the number of cells per milliliter by the culture volume. From week 1 and on, the number of passages is also taken into account. Cultures treated with 4-(2-(2-(benzo[b]thiophen-3-yl)-9-isopropyl-9H-purin-6-ylamino)ethyl)phenol (compound 1, table 1; example 1) at a concentration of 1 micromolar, generated a greater than 10-fold increase in the number of colony forming cells after 21 days of culture of mPB CD34+ cells compared to vehicle. […] Cells treated with a 4-(2-(2-(benzo[b]thiophen-3-yl)-9-isopropyl-9H-purin-6-ylamino)ethyl)phenol (compound 1, table 1; example 1) generated more mixed colonies associated with a >10-fold increase in erythrocyte colonies, a >10-fold increase in granulocyte/macrophage colonies, and a >10-fold increase in macrophage colonies.
smiles,measurement,setting,value
"CC(C)n1cnc2c(NCCc3ccc(O)cc3)nc(-c3csc4ccccc34)nc21 [Example 1, 4-(2-(2-(benzo[b]thiophen-3-yl)-9-isopropyl-9H-purin-6-ylamino)ethyl)phenol]",increase in colony forming units compared to control,"1 micromolar, 1x10^3 CB CD34+ cells, 5 week culture",greater than 10 fold
same,increase in the number of colony forming cells compared to vehicle,"1 micromolar, after 21 days of culture of mPB CD34+ cells",greater than 10 fold
same,mixed granulocyte/erythrocyte/monocyte/macrophage colonies,not observed in colonies derived from untreated cultures,give rise mixed granulocyte/erythrocyte/monocyte/macrophage colonies
same,increase in erythrocyte colonies,treated cells vs untreated,greater than 10 fold
same,increase in granulocyte/macrophage colonies,treated cells vs untreated,greater than 10 fold
same,increase in macrophage colonies,treated cells vs untreated,greater than 10 fold
